According to the supplement of paper PMC10307832:

Experiments:
Test in all cases: relative viability (nuclei count vs DMSO), 5 days (fraction); higher = more cells survive
ChaGo-K-1 = system: ChaGo-K-1
Method in brief: (§1)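 Relative viability divides the nuclei count in treated wells by that in vehicle wells. Lung cancer cell lines were seeded in 1536-well plates, dosed by pin tool the next day, and fixed and stained after 5 days in one step with final 0.05% Triton X-100, 1% formaldehyde and 1 ug/ml Hoechst. Dosing was a single drug or a fixed anchor-drug dose plus five library-drug doses (not always all listed) in √10 steps, and values are medians of duplicate plates imaged at 4×.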

NCI-H520 = system: NCI-H520
Method in brief: as §1

COR-L 105 = system: COR-L 105
Method in brief: as §1

NCI-H23 = system: NCI-H23
Method in brief: as §1

NCI-H650 = system: NCI-H650
Method in brief: as §1

H3255 = system: H3255
Method in brief: as §1

NCI-H1915 = system: NCI-H1915
Method in brief: as §1

NCI-H647 = system: NCI-H647
Method in brief: as §1

NCI-H2347 = system: NCI-H2347
Method in brief: as §1

NCI-H661 = system: NCI-H661
Method in brief: as §1

LC-2-ad = system: LC-2-ad
Method in brief: as §1

## Nc1ccn([C@@H]2O[C@H](CO)[C@@H](O)[C@@H]2O)c(=O)n1 [Cytarabine] + COc1cccc2cc(-c3nc([C@H]4CC[C@H](C(=O)O)CC4)n4ncnc(N)c34)[nH]c12 [OSI-027] (partner 0.5 µM)
ChaGo-K-1; first compound 0.005 µM
  relative viability: 0.465
ChaGo-K-1; first compound 0.01581 µM
  relative viability: 0.353
ChaGo-K-1; first compound 0.05 µM
  relative viability: 0.247
ChaGo-K-1; first compound 0.1581 µM
  relative viability: 0.165
ChaGo-K-1; first compound 0.5 µM
  relative viability: 0.212
NCI-H520; first compound 0.005 µM
  relative viability: 0.25
NCI-H520; first compound 0.01581 µM
  relative viability: 0.262
NCI-H520; first compound 0.05 µM
  relative viability: 0.33
NCI-H520; first compound 0.1581 µM
  relative viability: 0.212
NCI-H520; first compound 0.5 µM
  relative viability: 0.16
COR-L 105; first compound 0.005 µM
  relative viability: 0.601
COR-L 105; first compound 0.01581 µM
  relative viability: 0.587
COR-L 105; first compound 0.05 µM
  relative viability: 0.586
COR-L 105; first compound 0.1581 µM
  relative viability: 0.354
COR-L 105; first compound 0.5 µM
  relative viability: 0.224
NCI-H23; first compound 0.005 µM
  relative viability: 0.582
NCI-H23; first compound 0.01581 µM
  relative viability: 0.502
NCI-H23; first compound 0.05 µM
  relative viability: 0.507
NCI-H23; first compound 0.1581 µM
  relative viability: 0.272
NCI-H23; first compound 0.5 µM
  relative viability: 0.161
NCI-H650; first compound 0.005 µM
  relative viability: 0.438
NCI-H650; first compound 0.01581 µM
  relative viability: 0.424
NCI-H650; first compound 0.05 µM
  relative viability: 0.235
NCI-H650; first compound 0.1581 µM
  relative viability: 0.194
NCI-H650; first compound 0.5 µM
  relative viability: 0.206
H3255; first compound 0.005 µM
  relative viability: 0.521
H3255; first compound 0.01581 µM
  relative viability: 0.579
H3255; first compound 0.05 µM
  relative viability: 0.53
H3255; first compound 0.1581 µM
  relative viability: 0.429
H3255; first compound 0.5 µM
  relative viability: 0.453
NCI-H1915; first compound 0.005 µM
  relative viability: 0.657
NCI-H1915; first compound 0.01581 µM
  relative viability: 0.57
NCI-H1915; first compound 0.05 µM
  relative viability: 0.554
NCI-H1915; first compound 0.1581 µM
  relative viability: 0.372
NCI-H1915; first compound 0.5 µM
  relative viability: 0.338
NCI-H647; first compound 0.005 µM
  relative viability: 0.479
NCI-H647; first compound 0.01581 µM
  relative viability: 0.33
NCI-H647; first compound 0.05 µM
  relative viability: 0.271
NCI-H647; first compound 0.1581 µM
  relative viability: 0.105
NCI-H647; first compound 0.5 µM
  relative viability: 0.0867
NCI-H2347; first compound 0.005 µM
  relative viability: 0.401
NCI-H2347; first compound 0.01581 µM
  relative viability: 0.282
NCI-H2347; first compound 0.05 µM
  relative viability: 0.336
NCI-H2347; first compound 0.1581 µM
  relative viability: 0.268
NCI-H2347; first compound 0.5 µM
  relative viability: 0.327
NCI-H661; first compound 0.005 µM
  relative viability: 0.559
NCI-H661; first compound 0.01581 µM
  relative viability: 0.617
NCI-H661; first compound 0.05 µM
  relative viability: 0.545
NCI-H661; first compound 0.1581 µM
  relative viability: 0.413
NCI-H661; first compound 0.5 µM
  relative viability: 0.363
LC-2-ad; first compound 0.005 µM
  relative viability: 0.734
LC-2-ad; first compound 0.01581 µM
  relative viability: 0.69
LC-2-ad; first compound 0.05 µM
  relative viability: 0.539
LC-2-ad; first compound 0.1581 µM
  relative viability: 0.344
LC-2-ad; first compound 0.5 µM
  relative viability: 0.318
